Reference: patent publication US5952328A, “Benzothiazo and related heterocyclic group-containing cysteine and serine protease inhibitors” (Cephalon, Inc., priority 1997, dated 1999)
Read-outs that look alike come from different tables or passages of the source.

Biological target: T1, Calpain I (Homo sapiens, UniProt P07384)
T1 construct: made in house
T1 sequence (P07384 1-714): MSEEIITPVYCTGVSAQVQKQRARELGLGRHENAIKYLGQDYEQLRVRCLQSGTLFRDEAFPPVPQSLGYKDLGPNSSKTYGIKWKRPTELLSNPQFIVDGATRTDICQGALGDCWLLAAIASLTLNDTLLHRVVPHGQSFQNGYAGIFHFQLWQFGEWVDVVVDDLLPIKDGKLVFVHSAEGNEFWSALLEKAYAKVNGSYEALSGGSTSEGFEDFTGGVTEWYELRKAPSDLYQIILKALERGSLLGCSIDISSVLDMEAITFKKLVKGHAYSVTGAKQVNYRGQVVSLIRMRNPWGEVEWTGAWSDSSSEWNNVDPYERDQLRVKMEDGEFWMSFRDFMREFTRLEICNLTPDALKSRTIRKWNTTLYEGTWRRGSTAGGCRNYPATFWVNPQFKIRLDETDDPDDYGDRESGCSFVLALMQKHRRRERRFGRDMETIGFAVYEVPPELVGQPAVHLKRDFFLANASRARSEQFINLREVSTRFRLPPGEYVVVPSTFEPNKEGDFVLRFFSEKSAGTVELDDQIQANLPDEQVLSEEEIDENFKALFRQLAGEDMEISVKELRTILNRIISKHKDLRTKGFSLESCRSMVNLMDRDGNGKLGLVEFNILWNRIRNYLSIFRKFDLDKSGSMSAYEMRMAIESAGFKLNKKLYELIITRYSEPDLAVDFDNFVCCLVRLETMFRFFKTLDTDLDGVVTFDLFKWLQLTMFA
T1 sequence (P04632 1-268 partner): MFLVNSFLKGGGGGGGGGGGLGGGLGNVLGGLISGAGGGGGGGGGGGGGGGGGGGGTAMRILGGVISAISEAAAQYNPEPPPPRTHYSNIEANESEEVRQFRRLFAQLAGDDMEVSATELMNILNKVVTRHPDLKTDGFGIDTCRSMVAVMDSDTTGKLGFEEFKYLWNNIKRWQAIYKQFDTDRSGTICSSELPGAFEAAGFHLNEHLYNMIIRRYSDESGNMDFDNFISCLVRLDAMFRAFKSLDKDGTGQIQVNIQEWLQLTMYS
Test: Inhibition of calpain I activity (Succ-Leu-Tyr-MNA substrate hydrolysis, fluorescence)
Assay type: biochemical
Details: calpain I, 0.2 mM Succ-Leu-Tyr-MNA, pH 7.5, read-out: IC50
Procedure: To evaluate inhibitory activity, stock solutions (40 times concentrated) of each compound to be tested were prepared in 100% anhydrous DMSO and […] of each inhibitor preparation were aliquoted into each of three wells of a 96-well plate. Calpain I, prepared by a modification of the method of W. J. Lee et al. (Biochem. […] To start the reaction, […] of 50 mM CaCl2 in assay buffer was added to each of the wells of the plate, excepting three, which were used as background signal baseline controls. Substrate hydrolysis was monitored every 5 minutes for a total of 30 minutes using a Fluoroskan II fluorescence plate reader. […] Inhibition of calpain I activity was calculated as the percent decrease in the rate of substrate hydrolysis in the presence of inhibitor relative to the rate in its absence. Comparison between the inhibited and control rates was made within the linear range for substrate hydrolysis. For screening, compounds were tested at […]. […] The results were plotted as percent inhibition versus log inhibitor concentration, and the IC50 was calculated from linear regression of the data.

CCCCNC(=O)C(=O)[C@H](Cc1ccccc1)NC(=O)C1=C(O)c2ccccc2S(=O)(=O)N1C [Cpd 27h, 3-((4-Hydroxy-2-methyl-2H-1,2-benzothiazine-3-carbonyl)amino)-3-(S)-benzyl-2-oxo-N-butylpropanamide 1,1-dioxide] was tested, and the IC50 (Table IV) was roughly 10 µM.

In the case of CCCN1c2ccccc2S(=O)(=O)N(CC)C1C(=O)N[C@H](C=O)Cc1ccccc1 (single isomer, unassigned) [Cpd 35a, N-(3,4-Dihydro-2-ethyl-4-propyl-2H-1,2,4-benzothiadiazine-3-carbonyl)-L-phenylalaninal 1,1-dioxide], the IC50 (Table V, * mixture of diastereomers, a,b single diastereomers) is reported as roughly 1 µM.
